In PubChem BioAssay AID1512 (Sanford-Burnham Center for Chemical Genomics, 2009):

biological target: placental alkaline phosphatase (ALPP), human; test: human placental alkaline phosphatase inhibition – biochemical, luminescence, confirmation (AID 1512); details: purified PLAP enzyme, luminescent substrate read-out

| Structure (SMILES) | IC50 [µM] |
| --- | --- |
| CC(C)NCC(=O)c1ccc(O)c(O)c1 | 39.3 |
| Cc1cc(C)nc(NCc2ccc(O)c(O)c2)n1 | 51.2 |
| O=C(Cn1ccnc1-c1ccccc1)c1ccc(O)c(O)c1 | 17.2 |
| O=C(CNc1nc2ccccc2[nH]1)c1ccc(O)c(O)c1 | 9.11 |

Next, values leading:

| IC50 [µM] | Structure (SMILES) |
| --- | --- |
| 4.96 | Cc1nc(Br)cn1CC(=O)c1ccc(O)c(O)c1 |
| 5.81 | Cc1cn(CC(=O)c2ccc(O)c(O)c2)cn1 |
| 5.83 | Cc1cc2ncn(CC(=O)c3ccc(O)c(O)c3)c2cc1C |
